The values that follow come from patent publication US10532048B2, “Tetrahydroisoquinolin-1-one derivative or salt thereof” (Seldar Pharma Inc., priority 2007, dated 2020).

Read-outs that look alike come from different tables or passages of the source.

Test [1] deals with BB2 receptor (Homo sapiens (Human), UniProt P30550). Nature of the test: BB2 receptor binding test (125I [Tyr4] bombesin, PC-3 cell membrane sample). The following applies: 125I [Tyr4] bombesin 0.075 nM, room temperature 2 hours, read-out: IC50 (50% binding inhibition concentration). The method, then:
A BB2 receptor binding test was carried out using a membrane sample prepared from a human prostate cancer-derived PC-3 cell. […] The cells detached by a trypsin treatment were added with a 50 mM Tris-HCl buffer (pH 7.4, containing 0.2 mg/ml trypsin inhibitor and 0.2 mg/ml benzamidine), and homogenized by Polytron. The cell suspension was centrifuged at 1,500 rpm for 10 minutes, and the supernatant thus obtained was subjected to 1 hour of ultracentrifugation at 37,000×g. The precipitate was suspended in the aforementioned buffer to a concentration of 0.4 mg protein/ml, and stored at −80° C.
The BB2 receptor binding test was carried out by the following method, and the receptor antagonistic activity of a compound to be tested was calculated. […] Non-specific binding was measured using 1 μM of bombesin. After completion of the incubation, the reaction solution was filtered through a Whatman GF/B filter which had been soaked in 0.5% polyethyleneimine. The radioactivity on the filter was measured using a microplate scintillation counter (Top Count, Perkin-Elmer Co., Ltd.). Further, Ex represents the number of the Example compound.

The next test relates to male Wistar rat. Nature of the test: Restraint stress-induced defecation model. The conditions noted are these: read-out: Inhibitory Rate (%) of number of feces excreted. In kind it is in vivo. The method, then: The compound to be tested of the present test was used by dissolving in water for injection containing 20% propylene glycol+20% Tween 80 or a 0.5% MC (methyl cellulose) solution.
The number of feces excreted during a period from the restriction commencement to 1 hour thereafter was measured. Normal group was put into a separate cage, and number of feces excreted during 1 hour was measured in the same manner.

For the next test, the target named is 5-HT3 receptor (Homo sapiens (Human), UniProt P46098). The conditions noted are these: IBS patients; cited from earlier work.
5-HT3 receptor, sequence (P46098 24-478): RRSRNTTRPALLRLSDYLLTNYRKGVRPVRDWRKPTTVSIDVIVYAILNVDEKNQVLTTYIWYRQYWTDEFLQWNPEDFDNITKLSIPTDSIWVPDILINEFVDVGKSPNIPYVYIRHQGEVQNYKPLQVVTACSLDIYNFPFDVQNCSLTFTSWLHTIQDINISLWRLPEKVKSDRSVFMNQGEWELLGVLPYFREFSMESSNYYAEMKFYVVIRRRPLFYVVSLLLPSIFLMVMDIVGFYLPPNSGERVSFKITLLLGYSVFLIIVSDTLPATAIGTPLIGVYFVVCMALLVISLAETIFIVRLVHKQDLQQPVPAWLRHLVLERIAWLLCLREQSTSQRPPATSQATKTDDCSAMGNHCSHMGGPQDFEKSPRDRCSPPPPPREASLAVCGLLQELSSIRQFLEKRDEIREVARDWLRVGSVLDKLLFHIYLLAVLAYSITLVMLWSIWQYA
In test [2] the test system is BB2 receptor. The following applies: abdominal pain model induced by large intestinal distension; cited from earlier work.
In test [3] the test system is BB2 receptor. The following applies: stress-induced defecation model; cited from earlier work.
The mark [4] stands for this setting: oral administration 1 mg/kg, 15 minutes before restraint, feces counted for 1 hour.

BB2 receptor (Homo sapiens (Human), UniProt P30550), sequence (P30550 whole entry): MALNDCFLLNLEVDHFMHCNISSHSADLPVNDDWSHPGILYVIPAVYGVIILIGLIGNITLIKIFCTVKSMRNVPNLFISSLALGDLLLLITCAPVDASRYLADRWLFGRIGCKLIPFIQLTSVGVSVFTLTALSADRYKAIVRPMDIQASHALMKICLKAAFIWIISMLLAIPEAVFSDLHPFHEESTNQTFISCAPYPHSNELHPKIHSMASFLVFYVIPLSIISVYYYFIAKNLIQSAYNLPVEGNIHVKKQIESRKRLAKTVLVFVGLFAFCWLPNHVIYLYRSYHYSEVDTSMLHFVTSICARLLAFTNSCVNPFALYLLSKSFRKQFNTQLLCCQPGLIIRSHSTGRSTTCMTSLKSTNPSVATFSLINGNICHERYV

`CS(=O)(=O)N[C@H]1CCCC[C@@H]1N1C(=O)c2ccccc2[C@@H](C(=O)NOCc2ccccn2)[C@@H]1c1ccc(Cl)cc1Cl` [Ex 589]: the IC50 at BB2 receptor [1] came out at 5.7 nM. The inhibition in vivo at 1 mg/kg in the test on male Wistar rat (setting [4]) worked out at 73.9%.

For the compound `Cc1[nH]cnc1CN1CCc2c(c3ccccc3n2C)C1=O` [alosetron], the “improving rate for abdominal symptoms and diarrhea” value on 5-HT3 receptor is on record as 40 to 60%.

`C[C@@H](NC(=O)[C@@H]1c2ccccc2C(=O)N([C@H]2CCCC[C@@H]2NS(C)(=O)=O)[C@H]1c1ccc(Cl)cc1Cl)c1ccccc1` [Ex 236]: at BB2 receptor [1], the IC50 is 3 nM.

Take `CS(=O)(=O)N[C@H]1CCCC[C@@H]1N1C(=O)c2ccccc2[C@@H](C(=O)NCCc2cccc(C(F)(F)C(=O)O)c2)[C@@H]1c1ccc(Cl)cc1Cl` [Ex 712]: on BB2 receptor [1], the IC50 is 6.7 nM. The inhibition in vivo at 1 mg/kg in the test on male Wistar rat (setting [4]) was 55%.

With `CS(=O)(=O)N[C@H]1CCCC[C@@H]1N1C(=O)c2ccccc2[C@@H](C(=O)NOCc2cccc(OCC(=O)O)c2)[C@@H]1c1ccc(Cl)cc1Cl` [Ex 631], at BB2 receptor [1], the IC50 came out at 4.5 nM. Further, the inhibition in vivo at 1 mg/kg in the test with male Wistar rat (setting [4]) stood at 53.8%.

With `CS(=O)(=O)N[C@H]1CCCC[C@@H]1N1C(=O)c2ccccc2[C@@H](C(=O)NOCc2cccc(C(=O)O)c2)[C@@H]1c1ccc(Cl)cc1Cl` [Ex 560], the IC50 at BB2 receptor [1] was 4.8 nM. Also, the inhibition in vivo at 1 mg/kg in the test on male Wistar rat (setting [4]) turned out to be 62.1%.

As for `CS(=O)(=O)N[C@H]1CCCC[C@@H]1N1C(=O)c2ccccc2[C@@H](C(=O)NCCc2ccc(CC(=O)O)cc2)[C@@H]1c1ccc(Cl)cc1Cl` [Ex 701], on BB2 receptor [1], the IC50 came out at 7.4 nM. The inhibition in vivo at 1 mg/kg in the test with male Wistar rat (setting [4]) was 41.3%.

In the case of `CS(=O)(=O)N[C@H]1CCCC[C@@H]1N1C(=O)c2ccccc2[C@@H](C(=O)NOCc2cc(C(=O)O)cs2)[C@@H]1c1ccc(Cl)cc1Cl` [Ex 542], the IC50 on BB2 receptor [1] worked out at 4.7 nM. Moreover, in the test with male Wistar rat (1 h), the inhibition in vivo at 1 mg/kg is 40%.

Consider `CS(=O)(=O)NC(=O)c1cccc(CCNC(=O)[C@@H]2c3ccccc3C(=O)N([C@H]3CCCC[C@@H]3NS(C)(=O)=O)[C@H]2c2ccc(Cl)cc2Cl)c1` [Ex 700], for which, on BB2 receptor [1], the IC50 is 6.7 nM. For the same compound, in the test with male Wistar rat (setting [4]), the inhibition in vivo at 1 mg/kg came out at 69.8%.

`CS(=O)(=O)N[C@H]1CCCC[C@@H]1N1C(=O)c2ccccc2[C@@H](C(=O)NOCc2ccc(CC(=O)O)cc2)[C@@H]1c1ccc(Cl)cc1Cl` [Ex 856]: the IC50 on BB2 receptor [1] was determined as 6.8 nM. Moreover, the inhibition in vivo at 1 mg/kg in the test on male Wistar rat (setting [4]) came to 61.4%.

RC-3095: the “efficacy for abdominal symptom (abdominal muscle contraction reaction as index)” value in the test with BB2 receptor [2] is “effective”. The “efficacy for abnormal bowel motility” value with BB2 receptor [3] is given as “effective”.

For the compound `O=C(NCCc1ccccn1)[C@@H]1c2ccccc2C(=O)N([C@H](CO)Cc2ccccc2)[C@H]1c1ccc(Cl)cc1Cl` [Ex 61], on BB2 receptor [1], the IC50 was 12.8 nM.

Take `CS(=O)(=O)N[C@H]1CCCC[C@@H]1N1C(=O)c2ccccc2[C@@H](C(=O)NOCc2cccc(OCCCC(=O)O)c2)[C@@H]1c1ccc(Cl)cc1Cl` [Ex 709]: the IC50 at BB2 receptor [1] turned out to be 8.9 nM. The inhibition in vivo at 1 mg/kg in the test on male Wistar rat (setting [4]) came out at 41.5%.
